# Assay results from paper PMC7529893, “Structural basis for substrate recognition and chemical inhibition of oncogenic MAGE ubiquitin ligases” (Nature Communications, 2020).
# Molecular target: T1, MAGE-A11:PCF11 interaction (GST-MAGE-A11 MHD and FAM-PCF11_4) (Homo sapiens, UniProt P43364)
# T1 construct: GST-MAGE-A11 MHD (human MAGE-A11 MHD amino acid 218-429); made in house; host or cells: E. coli BL21(DE3)
# T1 sequence (P43364 218-429): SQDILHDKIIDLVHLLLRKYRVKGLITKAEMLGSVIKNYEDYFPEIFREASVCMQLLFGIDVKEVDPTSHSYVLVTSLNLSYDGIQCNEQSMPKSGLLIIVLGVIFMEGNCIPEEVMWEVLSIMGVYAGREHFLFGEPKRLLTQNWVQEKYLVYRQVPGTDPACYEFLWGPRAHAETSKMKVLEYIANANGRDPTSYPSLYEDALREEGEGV
# Assay: TR-FRET dose response test of compounds for disruption of MAGE-A11:PCF11 binding
# Details: not given
# Procedure: The TR-FRET assay buffer with a formula of 50 mM Tris pH 7.5, 20 mM MgCl2, 0.1 mg/ml BSA and 1 mM DTT was freshly prepared before each experiment. All TR-FRET assays were performed in black 384-well plates with 20 µl/well assay volume in the TR-FRET assay buffer at room temperature (~25 °C). All peptides or compounds were solubilized in DMSO. To test the competitive activity of peptides or compounds against the interaction between GST-MAGE-A11 MHD and FAM-PCF11_4 peptide, 10 µl/well peptide or compound at specified concentration was dispensed into a black 384-well low volume plate, followed by 5 µl/well FAM-PCF11_4 (800 nM), 5 µl/well Tb-anti-GST (20 nM), and GST-MAGE-A11 MHD (20 nM). The assay components in each well was then mixed by shaking the plate on an IKA MTS 2/4 digital microtiter plate shaker (IKA Works; Wilmington, NC, USA) for 1 min. The plate was further centrifuged in an Eppendorf 5810 centrifuge with an A-4-62 swing-bucket rotor (Eppendorf AG, Hamburg, Germany) at 201 g for 30 s. The plate was then incubated for 90 min with a lid to avoid light exposure to the assay components. After incubation, the fluorescent emission signals at 520 nm and 490 nm channels of individual wells were measured with a PHERAstar FS plate reader (BMG Labtech; Durham, NC, USA) by using a 340 nm excitation filter, 100 µs delay time, and 200 µs integration time. The TR-FRET fluorescence emission ratio (TR-FRET signal) for each well was presented as 10,000 × 520 nm/490 nm, which was used directly for curve fitting, or further converted to %Inhibition based on the respective positive and negative controls. The graphic software GraphPad Prism 4.81 (GraphPad Software; La Jolla, CA, USA) was used to generate curves and derive IC50 values of tested peptides or compounds, if applicable.
# TR-FRET screen for identifying MAGE-A11 small molecule inhibitors was performed as follows. The primary one-concentration screening and subsequent 10 or 20-concentration dose-response tests were accomplished with an automated High Throughput Screening system (HighRes Biosolutions, Beverly, MA)[30]. In the primary screening, 15 µl/well FAM-PCF11_4 (267 nM) was first dispensed with a Multidrop Combi Reagent Dispenser (Thermo Fisher Scientific, Waltham, MA) to black 384-well low-volume assay plates. The plates were spun down with a Velocity11 VSpin microplate centrifuge (Agilent Technologies, Santa Clara, CA). In total, 30 nl/well of 10 mM compound/DMSO solutions, or DMSO alone, were transferred from compound plates (the St. Jude FDA drug and bioactive library, Drug-like library and Lead-like library) or a control plate to the assay plates with a Pin Tool (V&P Scientific, San Diego, CA). The compounds were arrayed in columns 3–12 and columns 15–24 of compound plates. The controls were arrayed in columns 1, 2, 13, and 14 of a compound plate. In all, 5 µl/well Tb-anti-GST (20 nM) and GST-MAGE-A11 (20 nM) or 5 µl/well Tb-anti-GST (20 nM) alone was then dispensed to selected wells with a Multidrop Combi Reagent Dispenser. The final assay volume was 20 µl/well. The final DMSO concentration was 0.25% (v/v) (0.1% (v/v) from the FAM-PCF11_4 DMSO stock solution and 0.15% (v/v) from the compound-DMSO solution or the DMSO for the control wells). The final tested compound concentration was 15 µM. The final FAM-PCF11_4 concentration was 200 nM and the final Tb-anti-GST concentration was 5 nM. The final GST-MAGE-A11 concentration was 5 nM except for those selected positive control wells in which GST-MAGE-A11 was not presented. The plates were then shaken with a big bear shaker (Big Bear Automation, Santa Clara, California) and spun down with the Velocity11 VSpin microplate centrifuge for 20 s. The plates were then incubated at room temperature in a Liconic incubator (Liconic US, Woburn, MA) for 90 min. The TR-FRET signals for individual wells were measured with a PHERAstar FS plate reader. The %Inhibition of each tested inhibitor was calculated by using Eq. 1.
row,Structure (SMILES),IC50
1,COP(=O)(OC)c1nc(-c2ccc(Cl)cc2)oc1N1CCOCC1 [SJ000090185-1],17.4 µM

# Same assay, conditions: Dose response TR-FRET screening of nine scaffold groups against MAGE-A11:PCF11; read-out: consensus IC50
row,Structure (SMILES),IC50
1,Cc1ccc(S(=O)(=O)N2CCN(C3=C(Cl)C(=O)c4ccccc4C3=O)CC2)cc1 [SJ000021282-1],10.4 µM
2,O=C1C(Cl)=C(NC(=O)C(F)(F)F)C(=O)c2ccccc21 [SJ000024928-1],9.87 µM
3,Cc1ccc(S(=O)(=O)c2nc(-c3cccc(C)c3)oc2N2CCOCC2)cc1 [SJ000027480-1],11.2 µM
4,O=S(=O)(c1ccc(Cl)cc1)c1nc(-c2cccc(Br)c2)oc1N1CCOCC1 [SJ000027481-1],9.2 µM
5,Cc1ccc(S(=O)(=O)c2nc(-c3cccc([N+](=O)[O-])c3)oc2N2CCOCC2)cc1 [SJ000027482-1],9.54 µM
6,CCCCOc1ccc(N(C(C)=O)C2=C(Cl)C(=O)c3ccccc3C2=O)cc1 [SJ000032717-1],8.71 µM
7,CCCCCOc1ccc(N(C(C)=O)C2=C(Cl)C(=O)c3ccccc3C2=O)cc1 [SJ000032724-1],28.3 µM
8,COc1cccc(-c2nc(S(=O)(=O)c3ccc(C)cc3)c(N3CCOCC3)o2)c1 [SJ000038123-1],17.4 µM
9,COc1cccc(-c2nc(S(=O)(=O)c3ccc(Cl)cc3)c(N3CCOCC3)o2)c1 [SJ000038124-1],7.43 µM
10,CN(C)c1ccc(NC2=C(Cl)C(=O)c3ccccc3C2=O)cc1 [SJ000109503-1],3.3 µM
11,COc1cc2nc(N3CCN(C(=O)C4COc5ccccc5O4)CC3)nc(N)c2cc1OC (stereo not drawn) [SJ000113084-10],57.1 µM
12,CCOC(=O)N1CCN(Cc2ccc3c(c2)c2ccccc2n3CC)CC1 [SJ000147352-1],29.5 µM
13,CCC(COC(C)=O)NC1=C(Cl)C(=O)c2ccccc2C1=O (stereo not drawn) [SJ000149466-1],17.2 µM
14,CCCS(=O)(=O)N1CCN(Cc2ccc3c(c2)c2ccccc2n3CC)CC1 [SJ000167951-1],19.2 µM
15,Cc1ccc(S(=O)(=O)c2nc(-c3ccc(F)cc3)oc2N2CCOCC2)cc1 [SJ000230854-1],11.7 µM
16,Cc1ccc(S(=O)(=O)c2nc(-c3ccccc3Cl)oc2N2CCOCC2)cc1 [SJ000230856-1],4.34 µM
17,O=S(=O)(c1ccccc1)c1nc(-c2ccc(Br)cc2)oc1N1CCOCC1 [SJ000244320-1],8.63 µM
18,CS(=O)(=O)c1ccc(C2=C(c3ccccc3)C(=O)OC2)cc1 [SJ000285362-5],67.6 µM

row,Structure (SMILES),IC50
1,COc1cc2nc(N(C)CCCNC(=O)C3CCCO3)nc(N)c2cc1OC (stereo not drawn) [SJ000286094-9],36.2 µM
2,C=CCn1c(=O)c2c(nc(-c3ccc(S(=O)(=O)O)cc3)n2C)n(C)c1=O [SJ000287614-4],> 70 µM
3,Cn1c(=O)c2[nH]c(-c3ccc(S(=O)(=O)O)cc3)nc2n(C)c1=O [SJ000287642-4],21.8 µM
4,NC1=C(N2CCCCC2)C(=O)c2ccccc2C1=O [SJ000294373-2],20.1 µM
5,CC(C)(C)c1ccc(O)c(CNCCCNc2ccnc3cc(Cl)ccc23)c1 [SJ000311193-1],30.4 µM
6,c1ccc(Oc2ccc3c(NCCCNCc4cccc5c4OCO5)ccnc3c2)cc1 [SJ000311208-1],30.1 µM
7,COc1ccc(F)cc1CNCCCNc1ccnc2cc(Oc3ccccc3)ccc12 [SJ000311209-1],29 µM
8,COc1cccc(Oc2ccc3c(NCCCNCc4cccc5c4OCO5)ccnc3c2)c1 [SJ000311216-1],36.9 µM
9,COc1cccc(Oc2ccc3c(NCCCNCc4cc(F)ccc4OC)ccnc3c2)c1 [SJ000311217-1],36.8 µM
10,COc1ccc(Oc2ccc3c(NCCCNCc4cccc(OC)c4O)ccnc3c2)cc1 [SJ000311219-1],29 µM
11,COc1ccc(Oc2ccc3c(NCCCNCc4cccc5c4OCO5)ccnc3c2)cc1 [SJ000311220-1],43.7 µM
12,COc1ccc(Oc2ccc3c(NCCCNCc4cc(F)ccc4OC)ccnc3c2)cc1 [SJ000311221-1],46.4 µM
13,COc1cccc(CNCCCNc2ccnc3cc(Oc4ccc(F)cc4)ccc23)c1O [SJ000311223-1],61.9 µM
14,Fc1ccc(Oc2ccc3c(NCCCNCc4cccc5c4OCO5)ccnc3c2)cc1 [SJ000311224-1],59.6 µM
15,COc1cccc(CNCCCNc2ccnc3cc(Oc4ccc(Cl)cc4)ccc23)c1O [SJ000311227-1],20.7 µM
16,Clc1ccc(Oc2ccc3c(NCCCNCc4cccc5c4OCO5)ccnc3c2)cc1 [SJ000311228-1],17.7 µM
17,COc1ccc(F)cc1CNCCCNc1ccnc2cc(Oc3ccc(Cl)cc3)ccc12 [SJ000311229-1],19.7 µM
18,COc1ccc(F)cc1CNCCCNc1ccnc2cc(Oc3cccc(N(C)C)c3)ccc12 [SJ000311233-1],5.63 µM

# Same assay, conditions: Supplementary Data 3, 59 quinoline compounds; read-out: TR-FRET IC50
row,Structure (SMILES),IC50
1,"COc1ccc(Oc2ccc3c(NCCCNCc4ccco4)ccnc3c2)cc1 [SJ000311218-1, COc1ccc(Oc2ccc3c(NCCCNCc4occc4)ccnc3c2)cc1]",> 70 µM
2,"Clc1ccc(Oc2ccc3c(NCCCNCc4ccco4)ccnc3c2)cc1 [SJ000311226-1, Clc1ccc(Oc2ccc3c(NCCCNCc4occc4)ccnc3c2)cc1]",> 70 µM
3,"CN(C)c1cccc(Oc2ccc3c(NCCCNCc4ccco4)ccnc3c2)c1 [SJ000311230-1, CN(C)c1cccc(Oc2ccc3c(NCCCNCc4occc4)ccnc3c2)c1]",> 70 µM

# Molecular target: T2, MAGE-A11:PCF11 interaction (GST-MAGE-A11 and FAM-PCF11_4) (Homo sapiens, UniProt P43364)
# T2 construct: GST-MAGE-A11 MHD (human MAGE-A11 MHD amino acid 218-429); made in house; host or cells: E. coli BL21(DE3)
# T2 sequence (P43364 218-429): T1 sequence (P43364 218-429)
# Assay: TR-FRET primary / single point screen at 15 µM
# Format: binding
# Details: single point TR-FRET screening of 797 quinoline compounds against MAGE-A11:PCF11
# Method in brief: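 Single-point screen at 15 µM final compound in 50 mM Tris pH 7.5, 20 mM MgCl2, 0.1 mg/ml BSA, 1 mM DTT, with 200 nM FAM-PCF11_4, 5 nM Tb-anti-GST and 5 nM GST-MAGE-A11. After 90 min at room temperature, the 520/490 nm TR-FRET ratio (340 nm excitation) gave %Inhibition against no-MAGE-A11 and DMSO controls.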
row,Structure (SMILES),percent inhibition (TR-FRET)
1,O=C(C[C@H]1CC[C@]2(CC1)OO[C@]1(O2)C2CC3CC(C2)CC1C3)NCCNc1ccnc2cc(Cl)ccc12 [SJ000578361],28.0142
2,Clc1ccc2c(NCCNCC[C@H]3CC[C@]4(CC3)OO[C@]3(O4)C4CC5CC(C4)CC3C5)ccnc2c1 [SJ000578381],18.3966
3,O=C(C[C@H]1CC[C@]2(CC1)OO[C@]1(O2)C2CC3CC(C2)CC1C3)NCCCCNc1ccnc2cc(Cl)ccc12 [SJ000578384],25.1182
4,Cc1cc(NC(=O)CN[C@H]2CCN(Cc3ccccc3)C2)c2ccccc2n1 [SJ000832405],4.364
5,Cc1cc(NC(=O)CN[C@H]2CCN(Cc3cccc(F)c3)C2)c2ccccc2n1 [SJ000832581],-1.278

# Same assay, conditions: single point TR-FRET screening of quinoline compounds against MAGE-A11:PCF11; 15 µM
row,Structure (SMILES),percent inhibition (TR-FRET)
1,Clc1ccc2c(NCCCNCc3ccc[nH]3)ccnc2c1 [SJ000575192],52.9917
2,Clc1ccc2c(NCCCNCc3ccc(Br)s3)ccnc2c1 [SJ000575193],15.3375
3,O=C(C[C@H]1CC[C@]2(CC1)OO[C@]1(O2)C2CC3CC(C2)CC1C3)NCCCNc1ccnc2cc(Cl)ccc12 [SJ000578380],28.4789
